Experimental data reported in patent US20240043557A1, “A PLATFORM TO OBTAIN MONOCLONAL ANTIBODIES DIRECTED AGAINST PROCESSED TUMOR-SPECIFIC ANTIGENS” (Mediterranea Theranostic srl, priority 2020, published 2024).

T1: ADAM10 (Mus musculus, UniProt O35598)
T1 construct: endogenous in cells; host or cells: MTE 4-14 (transformed murine thymus cells) transfected with Trop-2
T1 sequence (O35598 215-749): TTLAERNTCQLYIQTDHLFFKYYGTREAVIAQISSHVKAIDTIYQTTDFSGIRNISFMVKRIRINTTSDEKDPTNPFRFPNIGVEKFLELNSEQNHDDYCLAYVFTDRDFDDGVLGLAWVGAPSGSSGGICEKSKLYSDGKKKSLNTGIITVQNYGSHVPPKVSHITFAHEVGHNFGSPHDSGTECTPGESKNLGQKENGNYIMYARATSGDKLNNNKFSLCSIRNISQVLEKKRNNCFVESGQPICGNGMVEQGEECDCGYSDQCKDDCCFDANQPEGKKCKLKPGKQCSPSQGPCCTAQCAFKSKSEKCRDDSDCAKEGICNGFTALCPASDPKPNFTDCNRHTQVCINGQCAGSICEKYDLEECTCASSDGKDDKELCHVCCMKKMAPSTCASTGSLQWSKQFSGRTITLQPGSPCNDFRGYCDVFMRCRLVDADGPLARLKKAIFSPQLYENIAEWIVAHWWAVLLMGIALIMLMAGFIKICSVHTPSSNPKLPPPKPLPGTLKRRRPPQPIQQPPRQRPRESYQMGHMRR

T2: Trop-2 (wild-type human Trop-2, NCBI accession number NP_002344.2)
T2 chain: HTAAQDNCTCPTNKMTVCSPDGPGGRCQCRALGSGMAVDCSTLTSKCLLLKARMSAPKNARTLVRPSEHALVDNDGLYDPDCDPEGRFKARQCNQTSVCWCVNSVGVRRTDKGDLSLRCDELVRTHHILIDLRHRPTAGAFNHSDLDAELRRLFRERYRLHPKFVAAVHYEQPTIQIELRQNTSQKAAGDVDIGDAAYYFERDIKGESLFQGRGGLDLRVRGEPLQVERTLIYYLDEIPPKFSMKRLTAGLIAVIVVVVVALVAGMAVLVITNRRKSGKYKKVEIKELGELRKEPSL


How the values were obtained:
[1] = target: T1, ADAM10; assay: Western blot of Trop-2 processing in MTE 4-14/Trop-2 transfectants upon ADAM10 inhibition; type: cell-based, murine; conditions: for effect on Trop-2 processing: MTE 4-14/Trop-2 transfectants, WB; for minimum concentration found to be effective in inhibiting Trop-2 cleavage: concentration used, GM6001 24 hours, G1254023X two doses every 24 hours for 48 hours; for concentration found effective (up to): inhibition of Trop-2 cleavage
Experimental: ADAM 10 activity was inhibited in the MTE 4-14/Trop-2 transfectants by treatment with chemical inhibitors or mRNA silencing, and the effect on Trop-2 processing and on Trop-2-dependent cell growth was evaluated.
A. WB analysis following treatment with the broad-spectrum metalloprotease inhibitor GM6001 or with the specific ADAM10 inhibitor G1254023X or ADAM10 siRNA silencing, as indicated. […] T2-p: processed Trop-2; na: native form; pr: processed form.
Western blotting was performed as described (El Sewedy, Fomaro et al. 1998). Tumors from experimental animals were rapidly frozen upon surgical removal and stored at −80° C. Frozen samples were quickly thawed and homogenized with a Dounce homogenizer. Cleared homogenates of tumors and cultured cell lysates were analyzed by SDS-PAGE and transferred to nitrocellulose filters. Filters were hybridized with anti-human Trop-2 (affinity-purified polyclonal rabbit antiserum) or anti-ADAM10 antibodies.
Cells were treated with ADAM10 inhibitors for 24 hours at the minimum concentration found to be effective in inhibiting Trop-2 cleavage, then assayed as indicated. The GM6001 metalloprotease family inhibitor (Calbiochem) was dissolved in DMSO and used at 6.5-13 μM for 24 hours; up to 50 μM GM6001 were found effective. The G1254023X selective ADAM10 inhibitor, dissolved in DMSO, was kindly provided by Dr. A. Ludwig. Cells received two doses (10 μM) every 24 hours for 48 hours; up to 20 μM G1254023X were found effective. Control cells received vehicle alone.
(§1) Complementary strategies were utilized for siRNA design. Briefly, Tuschl′ criteria were applied, i.e. position in the mRNA, GC content, base composition and flanking sequences (Elbashir, Harborth et al. 2001). Invitrogen (maidesigner.invitrogen.com/maiexpress/) provides a proprietary algorithm that performs a statistical analysis of the target sequence, based on sequence composition, nucleotide content and thermodynamic properties, and compares candidates with validated siRNA sequences. The Whitehead Institute web site (jura.wi.mit.edu/bioc/siRNAext/) combines Tuschl′ criteria with predictions of binding energies for both sense and antisense siRNAs and with BLAST filtering of cross-hybridizing sequences. The Sonnhammer procedure (sonnhammer.cgb.ki.se/siSearch/) performs data mining (siSearch) on validated siRNA databanks, using motif rules and energy parameters. siRNA were synthesized that were identified by more than one method or considered optimal by any of the procedures above. Annealed oligos were subcloned into the pSUPER vector, kindly provided by Dr. R. Bernard (Brummelkamp, Bernards et al. 2002), under the control of the RNA polymerase III H1 gene promoter. siRNA expression constructs were transiently transfected MTE 4-14 transfectants, and cell growth was measured. siRNA-targeted transcript levels were quantified by real-time PCR. Negative control siRNAs directed towards irrelevant targets were used; these were chosen after extensive testing for lack of off-target influence on cell growth.

[2] = system: metastatic triple-negative breast cancer (TNBC); conditions: patients with metastatic TNBC; cited from earlier work
[3] = system: MTE 4-14 cells; assay: In vitro growth of MTE 4-14 transfectants upon siRNA-mediated inhibition; type: cell-based, murine
Experimental: C. In vitro growth curves of MTE 4-14 cells transfected with the empty vector, wtTrop-2 or R87A-T88A Trop-2 upon ADAM10 (upper graphs, black,), MMP9 (lower graphs, black,) or control (human CD133, gray), siRNA-mediated inhibition. Bars: SEM. The p value for the only significant difference (ANOVA analysis) is indicated. Stars indicate post-hoc Bonferroni's t test p values (*≤0.05, **≤0.001).
Cell transfectants were seeded at 1.5−3.0×10^3 cells/well in 96-well plates (five replica wells per data point). Cell numbers were quantified by staining with crystal violet. Cell numbers were normalized against a standard reference curve of two-fold serially diluted cell samples.
as §1, with “Negative control siRNAs directed towards irrelevant targets were used; these were chosen after extensive testing for lack of off-target influence on cell growth.” left out

[4] = target: T2, Trop-2 (wild-type human Trop-2, NCBI …)

| Molecule | effect on Trop-2 processing [1] | minimum concentration found to be effective in inhibiting Trop-2 cleavage [1] [µM] | concentration found effective (up to) [1] | further results |
| --- | --- | --- | --- | --- |
| CNC(=O)[C@@H](NC(=O)[C@H](CCCc1ccccc1)[C@H](C)N(O)C=O)C(C)(C)C [G1254023X] | reduction in Trop-2 processing | 10 | up to 20 μM | – |
| CNC(=O)[C@H](Cc1c[nH]c2ccccc12)NC(=O)[C@@H](CC(=O)NO)CC(C)C [GM6001] | reduction in Trop-2 processing | 6.5 to 13 | up to 50 μM | – |
| Sacituzumab govitecan-hziy | – | – | – | efficacy in patients [2]: effective |
| ADAM10 siRNA: siRNA targeting murine ADAM10 (NM_007399.3, nt 292-309), SEQ ID NO: 57/58, expressed from pSUPER (nucleic acid, listed as Mus musculus) chain 1: GATCCCCAGACATTATGAAGGATTATTTCAAGAGAATAATCCTTCATAATGTCTTTTTTGGAAA chain 2: AGCTTTTCCAAAAAAGACATTATGAAGGATTATTCTCTTGAAATAATCCTTCATAATGTCTGGG | inhibited Trop-2 processing | – | – | effect on in vitro growth of R87A-T88A or empty vector transfectants ([3]; MTE 4-14 R87A-T88A or empty vector transfectants): no effect; effect on in vitro growth of wtTrop-2 transfectants ([3]; MTE 4-14 wtTrop-2 transfectants): overrides Trop-2 dependent growth stimulus |
| murine ADAM10 (endogenous in MTE 4-14 cells) (protein) TTLAERNTCQLYIQTDHLFFKYYGTREAVIAQISSHVKAIDTIYQTTDFSGIRNISFMVKRIRINTTSDEKDPTNPFRFPNIGVEKFLELNSEQNHDDYCLAYVFTDRDFDDGVLGLAWVGAPSGSSGGICEKSKLYSDGKKKSLNTGIITVQNYGSHVPPKVSHITFAHEVGHNFGSPHDSGTECTPGESKNLGQKENGNYIMYARATSGDKLNNNKFSLCSIRNISQVLEKKRNNCFVESGQPICGNGMVEQGEECDCGYSDQCKDDCCFDANQPEGKKCKLKPGKQCSPSQGPCCTAQCAFKSKSEKCRDDSDCAKEGICNGFTALCPASDPKPNFTDCNRHTQVCINGQCAGSICEKYDLEECTCASSDGKDDKELCHVCCMKKMAPSTCASTGSLQWSKQFSGRTITLQPGSPCNDFRGYCDVFMRCRLVDADGPLARLKKAIFSPQLYENIAEWIVAHWWAVLLMGIALIMLMAGFIKICSVHTPSSNPKLPPPKPLPGTLKRRRPPQPIQQPPRQRPRESYQMGHMRR | – | – | – | Trop-2 processing (Western blot) after ADAM10 gene expression silencing by specific siRNAs [4]: Trop-2 processing was virtually abolished following ADAM10 silencing |
| siRNAs targeting MMP9: control siRNA targeting murine MMP9 (NM_013599, nt 1780-1798), SEQ ID NO: 59/60 (nucleic acid, listed as Mus musculus) chain 1: GATCCCCCCGCAGACCAAGAGGGTTTTTCAAGAGAAAACCCTCTTGGTCTGCGGTTTTTGGAAA chain 2: AGCTTTTCCAAAAACCGCAGACCAAGAGGGTTTTCTCTTGAAAAACCCTCTTGGTCTGCGGGGG | – | – | – | effect on cell proliferation ([3]; MTE 4-14 transfectants, siRNA targeting MMP9): no effect on cell proliferation |
